Converted amounts (≈) assume the structure as drawn. Where two headings read alike, the source gives them in different places.
How the values were obtained:
Format in all cases: cell-based
[1] = tested on: E. cloacae 13047; assay: Minimal inhibitory concentration, E. cloacae 13047; conditions: read-out: MIC (μM) E. cloacae 13047
Method: (§1) General Procedure for Determination of Minimal Inhibitory Concentrations
(§2) Overnight cultures (5 mL) of bacterial strains were grown in LB media or TSA media (for S. aureus) at 37° C. and with shaking at 220 rpm until saturation. The overnight culture was diluted serially 1:100 (50 μL in 5 mL sterile media) and then 1:100 (250 μL in 25 mL sterile media). The 25 mL of diluted culture was then dispensed to a sterile 96 well plate (Corning #3370). 198 μL of culture were dispensed into row A and 100 μL of this culture were dispensed into rows B-H. Aminocoumarin compound (DMSO stock) were added to the first row and then the row was mixed by pipetting. 100 μL of culture from row A were transferred to row B and the serial dilution continued until the final 100 μL from row H were discarded. The plate was incubated without shaking in a 37° C. for 16 hours and then read by visible light spectrophotometer (Molecular Devices) at 600 nm. The minimal inhibitory concentration (MIC) was determined as the lowest concentration of compound concentration that inhibited the growth of bacteria.
(§3) The compounds of the invention were assessed for activities against the pathogens S. aureus RN4220 and MW2, E. cloacae 13047, A. baumannii 19606, K. pneumoniae 700721, E. coli MC4100, 25922. All activities are reported in micromolar (uM) and are 16 hour minimal inhibitory concentrations at 37° C. The assay is detailed in Example 11 and is titled “General Procedure for Determination of Minimal Inhibitory Concentrations.”

[2] = tested on: E. coli 25922; assay: Minimal inhibitory concentration, E. coli 25922; conditions: read-out: MIC (μM) E. coli 25922
Method: as §1, §2, §3

[3] = tested on: K. pneumoniae 700721; assay: Minimal inhibitory concentration, K. pneumoniae 700721; conditions: read-out: MIC (μM) K. pneumoniae 700721
Method: as §1, §2, §3

[4] = tested on: A. baumannii 19606; assay: Minimal inhibitory concentration, A. baumannii 19606; conditions: read-out: MIC (μM) A. baumannii 19606
Method: as §1, §2, §3

[5] = tested on: S. aureus RN4220; assay: Minimal inhibitory concentration, S. aureus RN4220; conditions: read-out: MIC (μM) S. aureus RN4220
Method: as §1, §2, §3

[6] = tested on: S. aureus MW2; assay: Minimal inhibitory concentration, S. aureus MW2; conditions: read-out: MIC (μM) S. aureus MW2 (MRSA)
Method: as §1, §2, §3

[7] = tested on: E. coli MC4100; assay: Minimal inhibitory concentration, E. coli MC4100; conditions: read-out: MIC (μM) E. coli MC4100 ara+
Method: as §1, §2, §3

[8] = Enterobacter cloacae, 13047, 16 hour minimal inhibitory concentration at 37° C.
[9] = Escherichia coli, 25922, 16 h, 16 hour minimal inhibitory concentration at 37° C.
[10] = Klebsiella pneumoniae, 700721, 16 hour minimal inhibitory concentration at 37° C.
[11] = Acinetobacter baumannii, 19606, 16 h, 16 hour minimal inhibitory concentration at 37° C.
[12] = Staphylococcus aureus, RN4220, 16 h, 16 hour minimal inhibitory concentration at 37° C.
[13] = Staphylococcus aureus, MRSA, 16 h, 16 hour minimal inhibitory concentration at 37° C.
[14] = Escherichia coli, MC4100, 16 h, 16 hour minimal inhibitory concentration at 37° C.
[15] = 16 hour minimal inhibitory concentration at 37° C.
[16] = Staphylococcus aureus, MRSA, 16 h

Row | Compound | MIC [1, 8] [µM] | MIC [2, 9] [µM] | MIC [3, 10] [µM] | MIC [4, 11] [µM] | MIC [5, 12] [µM] | MIC [6, 13] [µM] | MIC [7, 14] [µM] | also measured
1 | CO[C@@H]1[C@@H](OC(N)=O)[C@@H](O)[C@H](Oc2ccc3c(O)c(NC(=O)c4ccccc4Br)c(=O)oc3c2C)OC1(C)C [Compound 231] | > 100 | > 200 | > 100 | > 50 | > 100 | > 100 | > 200 | 
2 | CO[C@@H]1[C@@H](OC(=O)NC2CCCC2)[C@@H](O)[C@H](Oc2ccc3c(O)c(NC(=O)c4ccc(O)c(CC=C(C)C)c4)c(=O)oc3c2C)OC1(C)C [Compound 108] |  |  |  |  |  |  |  | MIC [1, 15]: >100 µM; MIC [2, 15]: >200 µM; MIC [3, 15]: >100 µM; MIC [4, 15]: >50 µM; MIC [5, 15]: >100 µM; MIC [6, 15]: >100 µM; MIC [7, 15]: >200 µM
3 | CO[C@@H]1[C@@H](OC(N)=O)[C@@H](O)[C@H](Oc2ccc3c(O)c(NC(=O)c4cccc(-c5cccc(Br)c5)c4)c(=O)oc3c2C)OC1(C)C [Compound 234] | > 100 | 18 (≈ 12.3 µg/mL) | > 100 | 18 (≈ 12.3 µg/mL) | 0.73 (≈ 0.499 µg/mL) | 0.46 (≈ 0.314 µg/mL) | 18 (≈ 12.3 µg/mL) | 
4 | CO[C@@H]1[C@@H](OC(N)=O)[C@@H](O)[C@H](Oc2ccc3c(OCc4ccccc4)c(NC(=O)c4ccc(O)c(CC=C(C)C)c4)c(=O)oc3c2C)OC1(C)C [Compound 211] | > 100 | > 200 | > 100 | > 50 | > 100 | > 100 | > 200 | 
5 | CO[C@@H]1[C@@H](OC(N)=O)[C@@H](O)[C@H](Oc2ccc3c(O)c(NC(=O)c4cccc(Oc5cccc(C)c5)c4)c(=O)oc3c2C)OC1(C)C [Compound 247] | > 100 | 39 (≈ 24.8 µg/mL) | > 100 | > 50 | 10 (≈ 6.35 µg/mL) | 5 (≈ 3.17 µg/mL) | 18 (≈ 11.4 µg/mL) | 
6 | CCNC(=O)O[C@H]1[C@H](Oc2ccc3c(O)c(NC(=O)c4ccc(O)c(CC=C(C)C)c4)c(=O)oc3c2C)OC(C)(C)[C@H](OC)[C@H]1O [Compound 104] |  |  |  |  |  |  |  | MIC [1, 15]: >100 µM; MIC [2, 15]: 156 µM (≈ 99.9 µg/mL); MIC [3, 15]: >100 µM; MIC [4, 15]: 10 µM (≈ 6.41 µg/mL); MIC [5, 15]: 2 µM (≈ 1.28 µg/mL); MIC [6, 15]: 2 µM (≈ 1.28 µg/mL); MIC [7, 15]: >200 µM
7 | CO[C@@H]1[C@@H](OC(N)=O)[C@@H](O)[C@H](Oc2ccc3c(O)c(NC(=O)OC(C)(C)C)c(=O)oc3c2C)OC1(C)C [Compound 209] | > 100 | > 200 | > 100 | > 50 | > 100 | > 100 | > 200 | 
8 | CO[C@@H]1[C@@H](OC(N)=O)[C@@H](O)[C@H](Oc2ccc3c(O)c(NC(=O)c4cccc(Oc5ccccc5Cl)c4)c(=O)oc3c2C)OC1(C)C [Compound 246] | > 100 | 76 (≈ 49.8 µg/mL) | > 100 | > 50 | 10 (≈ 6.55 µg/mL) | 5 (≈ 3.28 µg/mL) | 79 (≈ 51.7 µg/mL) | 
9 | CO[C@@H]1[C@@H](OC(N)=O)[C@@H](O)[C@H](Oc2ccc3c(O)c(NC(=O)c4cccc(-c5ccc(Cl)c(Cl)c5)c4)c(=O)oc3c2C)OC1(C)C [Compound 222] | > 100 | 37 (≈ 24.9 µg/mL) | > 100 | 9 (≈ 6.06 µg/mL) | 0.46 (≈ 0.31 µg/mL) | 0.23 (≈ 0.155 µg/mL) | 37 (≈ 24.9 µg/mL) | 
10 | COc1cccc(-c2cccc(C(=O)Nc3c(O)c4ccc(O[C@@H]5OC(C)(C)[C@H](OC)[C@@H](OC(N)=O)[C@H]5O)c(C)c4oc3=O)c2)c1 [Compound 103] |  |  |  |  |  |  |  | MIC [1, 15]: >100 µM; MIC [2, 15]: >200 µM; MIC [3, 15]: >100 µM; MIC [4, 15]: 9 µM (≈ 5.71 µg/mL); MIC [5, 15]: 36 µM (≈ 22.8 µg/mL); MIC [6, 15]: 36 µM (≈ 22.8 µg/mL); MIC [7, 15]: >200 µM
11 | CO[C@@H]1[C@@H](OC(N)=O)[C@@H](O)[C@H](Oc2ccc3c(OCCO)c(NC(=O)c4ccc(O)c(CC=C(C)C)c4)c(=O)oc3c2C)OC1(C)C [Compound 215] | > 100 |  | > 100 |  | 38 (≈ 25 µg/mL) |  |  | MIC ([2]; Escherichia coli, 25922, 16 hour minimal inhibitory concentration at 37° C.): > 200 µM; MIC ([4]; Acinetobacter baumannii, 19606, 16 hour minimal inhibitory concentration at 37° C.): > 50 µM; MIC [6, 16]: 19 µM (≈ 12.5 µg/mL); MIC ([7]; Escherichia coli, MC4100, 16 hour minimal inhibitory concentration at 37° C.): > 200 µM
12 | CO[C@@H]1[C@@H](OC(N)=O)[C@@H](O)[C@H](Oc2ccc3c(O)c(NC(=O)c4ccc(Br)c(Oc5ccccc5)c4)c(=O)oc3c2C)OC1(C)C [Compound 258] | > 100 | 18 (≈ 12.6 µg/mL) | 20 (≈ 14 µg/mL) | > 50 | 5 (≈ 3.5 µg/mL) | 4.5 (≈ 3.15 µg/mL) | 4.5 (≈ 3.15 µg/mL) | 
13 | CO[C@@H]1[C@@H](OC(N)=O)[C@@H](O)[C@H](Oc2ccc3c(O)c(NC(=O)c4cccc(Oc5ccc(C)cc5)c4)c(=O)oc3c2C)OC1(C)C [Compound 221] | > 100 | 5 (≈ 3.17 µg/mL) | > 100 | > 50 | 10 (≈ 6.35 µg/mL) | 10 (≈ 6.35 µg/mL) | 10 (≈ 6.35 µg/mL) | 
14 | CO[C@@H]1[C@@H](OC(N)=O)[C@@H](O)[C@H](Oc2ccc3c(O)c(NC(=O)c4ccc([N+](=O)[O-])c(Oc5ccccc5)c4)c(=O)oc3c2C)OC1(C)C [Compound 253] | > 100 | 75 (≈ 49.9 µg/mL) | > 100 | > 50 | 38 (≈ 25.3 µg/mL) | 38 (≈ 25.3 µg/mL) | 75 (≈ 49.9 µg/mL) | 
15 | CO[C@@H]1[C@@H](O)[C@@H](OC(=O)c2cc(C)c(C)[nH]2)[C@H](Oc2ccc3c(O)c(NC(=O)c4ccc(O)c(CC=C(C)C)c4)c(=O)oc3c2C)OC1(C)C [Compound 214] |  |  |  |  |  |  |  | MIC ([1]; Enterobacter cloacae, 13047, 16 h): > 100 µM; MIC ([2]; Escherichia coli, 25922, 16 h): > 200 µM; MIC ([3]; Klebsiella pneumoniae, 700721, 16 h): > 100 µM; MIC ([4]; Acinetobacter baumannii, 19606, 16 h): > 50 µM; MIC ([5]; Staphylococcus aureus, RN4220, 16 h): 5 µM (≈ 3.45 µg/mL); MIC [6, 16]: 5 µM (≈ 3.45 µg/mL); MIC ([7]; Escherichia coli, MC4100, 16 h): > 200 µM

Reference: patent US11713335B2, “Aminocoumarin compounds and methods of their use” (President and Fellows of Harvard College, priority 2018, dated 2023)
